Results from patent US11426402B2, “IRE1 activating compounds for use in therapy” (The Scripps Research Institute, priority 2019, dated 2022).

How the values were obtained:
[1] = system: IRE1/XBP1s signaling pathway; test: XBP1-RLuc splicing reporter in HEK293T-REx cells; format: cell-based; conditions: HEK293-T-REx; HEK293T-REx XBP1-RLuc cells, 18 hr; read-out: EC50 of XBP1-RLuc activation
Protocol: FIG. 2A and FIG. 2B. Activation of RLuc luminescence in HEK293T-Rex cells stably expressing XBP1s-RLuc treated with 10 μM IRE1 activators in the presence or absence of IRE1 inhibitor 4 μ8c (32 μM) for 18 hr. Luminescence is shown as % signal relative to Tg treatment (500 nM; 18 hr). Error bars represent standard deviation for n=3 replicates (FIG. 2A), Activation of RLuc luminescence in HEK293T-Rex cells stably expressing XBP1s-RLuc treated with the indicated concentrations of IRE1 activator compounds for 18 hr. Luminescence is shown as % signal relative to Tg treatment (500 nM; 18 hr) Error bars represent standard deviation for n=3 replicates (FIG. 2B).
HEK293T-Rex cells incorporating either the XBP1s-Rluc or ERSE-FLuc reporters were collected by trypsinization and resuspended at a density of 500,000 cells per mL. The assay was started by dispensing 5 μL of cell suspension into each well of white, solid-bottom 1536-well plates using a flying reagent dispenser (FRD) and placed into an online incubator for 3 hr. Cells were then treated with 34 nL/well of either test compounds to give final concentrations of 5.17 μM, DMSO (low control, final concentration 0.68%, 0% activation) or 37 μM of Delta-7 thapsigargin (high control, final concentration 500 nM, 100% activation). Plates were incubated for 18 hr at 37° C., removed from the incubator and equilibrated to room temperature for 10 min. Luciferase activity was detected by addition of 5 μL of ONE-Glo reagent (Promega) to each well. After a 10 min incubation time, light emission was measured with the ViewLux reader (PerkinElmer).
The percent activation of each test compound was calculated as follows: % Activation=100*(Test Compound-Median Low Control)/(Median High Control Median Low Control). Primary screening of the 646,275 compound library at Scripps Florida yielded 10,114 hits for XBP1s Renilla Luciferase activity at ≥13.83% activation by thapsigargin. Compounds that hit in more than 7 screens (promiscuity score) were eliminated, as well as those that elicited HSP70 activation. The top 6,391 remaining compounds (activation≥16.36%) were moved forward to triplicate confirmation screening and HEK TREX CTG cytotoxicity counterscreening. Duplicates were removed from the resulting list, and the top 638 activating compounds (≥15.92%) were moved forward for triplicate titration screening and HEK TREX CTG titration counterscreening.
A HEK293^T-REx cell line that stably expresses a XBP1-Renilla luciferase (XBP1-RLuc) splicing reporter was used to identify compounds that activated the IRE1/XBP1s signaling pathway^37. Activated IRE1selectively splices mRNA encoded by this reporter, resulting in a frame-shift that allows expression of the active Renilla luciferase enzyme^37. […]

[2] = biological target: IRE1 (Homo sapiens, UniProt O75460); test: IRE1 phosphorylation by Phos-tag SDS-PAGE and immunoblotting in HEK293T cells; format: cell-based; conditions: test compound alone, 10 μM, 4 hours
Chain of IRE1 (O75460 19-977): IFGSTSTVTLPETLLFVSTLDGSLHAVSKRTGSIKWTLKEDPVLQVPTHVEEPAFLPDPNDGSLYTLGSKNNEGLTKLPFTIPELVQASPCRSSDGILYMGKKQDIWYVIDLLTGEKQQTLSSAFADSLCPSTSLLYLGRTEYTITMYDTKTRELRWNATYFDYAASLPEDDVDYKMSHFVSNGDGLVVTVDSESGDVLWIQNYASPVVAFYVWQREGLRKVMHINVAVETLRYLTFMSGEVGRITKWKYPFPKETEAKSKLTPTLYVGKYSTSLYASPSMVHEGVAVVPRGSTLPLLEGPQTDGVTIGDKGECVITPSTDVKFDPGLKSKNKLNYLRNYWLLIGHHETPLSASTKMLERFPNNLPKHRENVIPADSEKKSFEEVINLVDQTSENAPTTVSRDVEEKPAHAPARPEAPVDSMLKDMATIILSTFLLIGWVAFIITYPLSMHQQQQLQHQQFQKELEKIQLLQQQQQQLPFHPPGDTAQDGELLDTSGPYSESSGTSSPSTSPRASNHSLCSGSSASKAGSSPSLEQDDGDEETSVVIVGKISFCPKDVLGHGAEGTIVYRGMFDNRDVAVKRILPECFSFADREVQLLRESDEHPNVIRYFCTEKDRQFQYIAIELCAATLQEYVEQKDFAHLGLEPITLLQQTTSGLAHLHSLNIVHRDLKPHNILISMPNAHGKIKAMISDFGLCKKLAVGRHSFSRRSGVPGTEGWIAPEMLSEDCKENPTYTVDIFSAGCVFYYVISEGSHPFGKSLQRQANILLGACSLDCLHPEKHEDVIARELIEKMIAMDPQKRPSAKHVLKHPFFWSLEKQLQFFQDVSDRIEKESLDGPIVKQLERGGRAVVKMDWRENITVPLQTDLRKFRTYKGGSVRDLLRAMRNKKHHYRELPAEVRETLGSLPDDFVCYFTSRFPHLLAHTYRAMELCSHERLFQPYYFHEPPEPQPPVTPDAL
Protocol: FIG. 3A-FIG. 3D. […] Error bars show SEM for n=3. […] Error bars show SEM for n=3. […] Error bars show SEM for n=3.
Cell lysates were prepared as previously described in RIPA buffer (50 mM Tris, pH 7.5, 150 mM NaCl, 0.1% SDS, 1% Triton X-100, 0.5% deoxycholate and protease inhibitor cocktail (Roche). Total protein concentration in cellular lysates was normalized using the Bio-Rad protein assay. Lysates were then denatured with 1× Laemmli buffer+100 mM DTT and boiled before being separated by SDS-PAGE. Samples were transferred onto nitrocellulose membranes (Bio-Rad) for immunoblotting and blocked with 5% milk in Tris-buffered saline, 0.5% Tween-20 (TBST) following incubation overnight at 4° C. with primary antibodies. Membranes were washed in TBST, incubated with IR-Dye conjugated secondary antibodies and analyzed using Odyssey Infrared Imaging System (LI-COR Biosciences). Quantification was carried out with LI-COR Image Studio software.
Compounds that activate IRE1 through binding the IRE1 kinase active site and inhibiting IRE1 autophosphorylation can elicit off-target activity likely associated with binding to other protein kinases.^20, 35, 36 Thus, the purpose of this example was to define the dependence of the present compounds on IRE1 kinase activity. HEK293T cells were treated with compound 198, 474, or 970 in the absence or presence of Tg, and IRE1 phosphorylation was monitored by using Phos-tag SDS-PAGE and immunoblotting. As a control, cells were treated with APY29—an IRE1 kinase site inhibitor that allosterically activates the IRE1 RNAse^20 in the absence or presence of Tg.

[3] = system: stress-responsive signaling pathways; test: Gene Ontology and stress-responsive geneset analysis of RNAseq in HEK293T cells; format: cell-based, human
Protocol: Cells were lysed and total RNA collected using the RNeasy mini kit, according to manufacturer's instructions (Qiagen). Conventional RNA-seq was conducted via BGI Americas on the BGI Proprietary platform, providing single-end 50 bp reads at 20 million reads per sample. Alignment of sequencing data was done using DNAstar Lasergene SeqManPro to the GRCh37. p 13 human genome reference assembly, and assembly data were imported into ArrayStar 12.2 with QSeq (DNAStar Inc.) to quantify the gene expression levels and normalization to reads per kilobase per million (RPKM). Differential expression analysis and statistical significance calculations between different conditions was assessed using “DESeq” in R, compared to vehicle-treated cells, using a standard negative binomial fit of the RPKM data to generate Fold Change quantifications.

Structure (SMILES)	EC50 [1] [nM]	phosphorylated IRE1 [2]	Gene Ontology analysis of induced genes [3]	activation of other stress responsive signaling pathways apart from IRE1/XBP1s [3]
CCOC(CNC(=O)C1CCCN(Cc2nc(-c3ccc(Cl)cc3)oc2C)C1)OCC (stereo not drawn) [Compound 198]	< 3000	increased phosphorylated IRE1	primarily induce expression of genes annotated with GO terms related to ER stress and the UPR	to a lesser extent
O=C(CN(Cc1ccc(Cl)cc1)S(=O)(=O)c1cccnc1)N1CCc2ccccc21 [Compound 970]	< 3000	increased phosphorylated IRE1	primarily induce expression of genes annotated with GO terms related to ER stress and the UPR	do not significantly activate
Cc1ccc(OCCN(C)C(=O)Cn2cc(NC(=O)CCOc3ccccc3)cn2)cc1 [Compound 474]	< 3000	increased phosphorylated IRE1	primarily induce expression of genes annotated with GO terms related to ER stress and the UPR	do not significantly activate
